Data: ChEMBL document CHEMBL5661955, “ASAP - In vitro cytotoxicity” (2024)
Values joined by “and” are separate entries in the source; they are usually repeats but may differ in a detail not shown here. Equal values may be shown once.

Tests used:
[1] = Functional assay to measure dose dependent changes in cell viability from drug treatment in Vero E6 miRFP670 cells (cotreated with P-gp inhibitor, CP100356) that are infected with Dengue virus type 2 New Guinea C. […] Cytotoxicity is reported via via analysis of DAPI count using high-content imager. The assay has been performed by KU Leuven.; type: toxicity, cell-based, Vero C1008; details: chlorocebus sabaeus, p-gp concentration 500 nM
[2] = (§1) Functional CPE-based assay to measure dose dependent changes in cell viability from drug treatment in Vero E6 miRFP670 cells. Cells are treated with antiviral candidates that have been serially diluted. Cytotoxicity is reported via analysis of MTS assays in uninfected cells. The assay has been performed by KU Leuven.; type: toxicity, Vero C1008; details: chlorocebus sabaeus
[3] = as §1, with “miRFP670 cells (cotreated with P-gp inhibitor, CP100356).” for “miRFP670 cells.”; type: toxicity, Vero C1008; details: chlorocebus sabaeus, p-gp concentration 500 nM
[4] = Functional metabolic assay to measure dose dependent changes in cell viability from drug treatment in Vero E6/TMPRSS2 cells (cotreated with P-gp inhibitor, Elacridar). […] Cytotoxicity is reported via measuring absorbance and analysis of MTT/MTS assays in uninfected cells. The assay has been performed by Icahn School of Medicine at Mount Sinai.; type: toxicity, cell-based, VeroE6/TMPRSS2; details: chlorocebus sabaeus, p-gp concentration 2 uM
[5] = with CP100356 (P-gp inhibitor, concentration not stated)
[6] = Vero E6 miRFP670 cells, with CP100356 (P-gp inhibitor, concentration not stated)
[7] = Vero E6/TMPRSS2 cells, with Elacridar (P-gp inhibitor, concentration not stated)

Structure (SMILES)	CC50 [1, 5]	CC50 ([2]; Vero E6 miRFP670 cells)	CC50 [4, 7]	CC10 ([4]; veroe6/tmprss2)	also measured
C#C[C@@]1(O)[C@H](O)[C@@H](CO)O[C@H]1n1ccc2c(N)ncnc21	> 50 µM	> 50 µM	–	–	CC50 ([1]; vero c1008): 40.4 µM and 28.2 µM; CC50 [3, 6]: > 50 µM; CC50 ([3]; vero c1008): 38 µM
O=C(Nc1ccc2c(c1)CNCC2)c1cc(Cl)cc2[nH]ncc12	–	> 50 µM	–	–	–
CC(C)Cc1nc2c(C(=O)Nc3ccc4c(c3)CNC4)cc(Br)cc2[nH]1	0.864 µM	0.623 µM	20.9 µM	0.569 µM	–
CC(C)(C)c1cc(Br)cc(C(=O)Nc2ccc3c(c2)CNC3)c1	–	5.77 µM	–	–	–
O=C(Nc1ccc2c(c1)CNC2)c1cc(Cl)cc(-n2cccc2)c1	> 50 µM	> 50 µM	46.4 µM	17.502 µM and 9.003 µM	CC50 ([4]; veroe6/tmprss2): 34.8 µM
Clc1ccc2[nH]cc(Cc3ccc(-c4nn[nH]n4)cc3)c2c1	19.3 µM	> 50 µM	> 50 µM	> 50 µM	–
CN1Cc2ccc(NC(=O)c3cc(Cl)cc4[nH]ncc34)cc2C1	–	> 50 µM	–	–	–
CC(C)NC(=O)[C@H](Nc1ccc2c(c1)CNC2)c1cc(Cl)cc2[nH]ncc12	–	> 50 µM	> 50 µM	> 50 µM	CC50 ([1]; vero c1008): > 50 µM and 7.69 µM and 29 µM; CC50 [3, 6]: > 50 µM; CC50 ([3]; vero c1008): 47.7 µM
O=C(Nc1ccc2c(c1)CNC2)c1cc(Br)cc2ccccc12	–	11.4 µM	–	–	–
C=C1C[C@H](c2cc(Cl)cc(NC(=O)OCc3ccccc3)c2)[C@@H](c2cccc(-c3nn[nH]n3)c2)C1	7.56 µM	5.72 µM	–	–	–
O=C(Nc1ccc2c(c1)CNC2)c1cc(Cl)cc(C2CC2)c1	11.2 µM	10.5 µM	> 50 µM	0.136 µM	–
O=C(Nc1ccc2c(c1)CNC2)c1cc(Cl)cc2c1CCC2	–	18.4 µM	–	–	–
O=C1Cc2c(cccc2C(=O)Nc2ccc3c(c2)CNC3)N1	> 50 µM	> 50 µM	–	–	CC50 [3, 6]: > 50 µM
O=C(Nc1ccc2c(c1)CNC2)c1cc(Br)cc2[nH]c(-c3ccccc3)nc12	3.3 µM	10.7 µM	14.3 µM	0.098 µM	–
O=C(Nc1ccc2c(c1)CNCCC2)c1cc(Cl)cc2[nH]ncc12	2.18 µM	1.42 µM	> 50 µM	< 0.023 µM	–
O=C(Nc1cc(Cl)cc(C(=O)NCc2ccc(-c3nnn[nH]3)cc2)c1)OCc1ccccc1	3.21 µM	> 50 µM	> 50 µM	> 50 µM	–
CC(C)(C)NC(=O)[C@H](Nc1cccc(-c2nn[nH]n2)c1)c1cc(Cl)cc(NC(=O)OCc2ccccc2)c1	2.78 µM	> 50 µM	> 50 µM	> 50 µM	–
C=CC[C@H](Nc1ccc(-c2nn[nH]n2)cc1)c1cc(Cl)cc(NC(=O)OCc2ccccc2)c1	10.7 µM	46.2 µM	–	–	–
O=C(Nc1cc(Cl)cc([C@H]2CN(Cc3ccccc3)C[C@@H]2c2cccc(-c3nn[nH]n3)c2)c1)OCc1ccccc1	12.3 µM	12.5 µM	> 50 µM	34.224 µM	–
CCCNC(=O)[C@H](Nc1cccc(-c2nn[nH]n2)c1)c1cc(Cl)cc(NC(=O)OCc2ccccc2)c1	> 50 µM	> 50 µM	–	–	–
CC(C)c1cc(Br)cc(C(=O)Nc2ccc3c(c2)CNC3)c1	–	11.5 µM	–	–	–

Structure (SMILES)	CC50 [1, 5]	CC50 ([2]; Vero E6 miRFP670 cells)	CC50 [4, 7]	CC10 ([4]; veroe6/tmprss2)	also measured
O=C(Nc1ccc2c(c1)CNC2)c1cccc2[nH]ncc12	15.4 µM	11.5 µM	> 50 µM	> 50 µM	–
O=C(Nc1ccc2c(c1)CNC2)c1cc(Br)cc2[nH]c(Cc3ccccc3)nc12	9.98 µM	11.6 µM	16.5 µM	0.199 µM	–
O=C(Nc1ccc2c(c1)CNC2)c1cc(Br)cc2c1OCO2	–	23 µM	–	–	–
O=C(Nc1ccc(C2CNC2)cc1)c1cc(Cl)cc2[nH]ncc12	> 50 µM	> 50 µM	–	–	–
Cn1ncc2c(C(=O)Nc3ccc4c(c3)CNC4)cc(Br)cc21	> 50 µM	> 50 µM	–	–	–
CCc1nc2c(C(=O)Nc3ccc4c(c3)CNC4)cc(Br)cc2[nH]1	> 50 µM	> 50 µM	33.5 µM	0.32 µM	–
NCc1cc(/C=C/C(=O)O)cc(NC(=O)c2cc(Cl)cc(NC(=O)OCc3ccccc3)c2)c1	15.7 µM	> 50 µM	–	–	–
C=CC[C@H](Nc1cc(Cl)cc(NC(=O)OCc2ccccc2)c1)c1ccc(-c2nn[nH]n2)cc1	7.62 µM	14.6 µM	–	–	–
CC(C)c1nc2c(C(=O)Nc3ccc4c(c3)CNC4)cc(Br)cc2[nH]1	3.63 µM	2.65 µM	19.2 µM	0.476 µM	–
NCc1cccc(NC(=O)c2cc(Cl)cc3c2cnn3CC2CC2)c1	24.1 µM	20.7 µM	–	–	–
NCc1cccc(NC(=O)c2cc(Cl)cc(-n3cccc3)c2)c1	> 50 µM	25.7 µM	> 50 µM	> 50 µM	–
O=C(Nc1cc(Cl)cc(C(=O)Nc2cccc(C3CCNCC3)c2)c1)OCc1ccccc1	11.8 µM	5.29 µM	> 10 µM	–	CC50 ([4]; veroe6/tmprss2): 13.5 µM
N[C@H]1Cc2ccc(NC(=O)c3cc(Cl)cc(NC(=O)OCc4ccccc4)c3)cc2C1	4.15 µM	2.82 µM	–	–	–
O=C(NS(=O)(=O)C1CC1)c1cc(Cl)ccc1NS(=O)(=O)c1ccc(Oc2ccccc2Cl)cc1	> 50 µM	> 50 µM	–	–	–
N#C[C@H](Nc1ccc2c(c1)CNC2)c1cc(Cl)cc2[nH]ncc12	–	> 50 µM	> 50 µM	> 50 µM	–
O=C(O)COc1cccc(NC(=O)c2cc(Cl)cc(NC(=O)OCc3ccccc3)c2)c1	–	> 50 µM	> 50 µM	> 50 µM	–
CCOc1cccc(-c2ccc(S(=O)(=O)Nc3ccc(Cl)cc3C(=O)O)cc2C)c1	21.9 µM	36.1 µM	> 50 µM	0.027 µM	–
NCc1cccc(NC(=O)[C@H](NC(=O)OCc2ccccc2)c2ccc(Br)c(Cl)c2)c1	13.4 µM	10 µM	–	–	–
NCCc1ccc([C@H]2C[C@@H]2c2cc(Cl)cc(NC(=O)OCc3ccccc3)c2)cc1	5.29 µM	2.43 µM	–	–	CC50 ([1]; vero c1008): 4.57 µM; CC50 [3, 6]: 5.78 µM
O=C(Nc1cc(Cl)cc(C(=O)Nc2ccc(C3CCNCC3)cc2)c1)OCc1ccccc1	3.1 µM	2.82 µM	–	–	CC50 [3, 6]: 1.43 µM
O=C(Nc1cc(Cl)cc(-c2ccc3[nH]nc(C(=O)O)c3c2)c1)OCc1ccccc1	13.6 µM	> 50 µM	–	–	–

Structure (SMILES)	CC50 [1, 5]	CC50 ([2]; Vero E6 miRFP670 cells)	CC50 [4, 7]	CC10 ([4]; veroe6/tmprss2)	also measured
CC(C)OC(=O)Nc1cc(Cl)cc(C(=O)Nc2cccc(CN)c2)c1	4.99 µM	20.5 µM	> 50 µM	< 0.023 µM	–
O=C(Nc1cc(Cl)cc(-c2ccc3cc(C(=O)O)[nH]c3c2)c1)OCc1ccccc1	24.8 µM	< 0.391 µM	–	–	CC50 [3, 6]: 38.1 µM
NCc1cccc(NC(=O)c2cc(Cl)cc(C(N)=O)c2)c1	> 50 µM	> 50 µM	–	–	–
NCc1cc(NC(=O)c2cc(Cl)cc(NC(=O)OCc3ccccc3)c2)cc([C@@H]2C[C@H]2C(=O)O)c1	21.8 µM	9.99 µM	–	–	–
COc1cccc(-c2ccc([C@@H](NC(=O)OCc3ccccc3)C(=O)Nc3cccc(CN)c3)cc2)c1	23.1 µM	6.76 µM	–	–	–
CNC(=O)[C@H](Nc1cc(CN)cc(C(=O)O)c1)c1cc(Cl)cc(C2CC2)c1	> 50 µM	> 50 µM	–	–	–
O=C(Nc1cc(Cl)cc([C@H]2C[C@@H]2c2cccc(C3CCNCC3)c2)c1)OCc1ccccc1	3.44 µM	1.23 µM	–	–	–
COC(=O)c1cc(NC(=O)c2cc(Cl)cc(NC(=O)OCc3ccccc3)c2)cc(-c2nnn[nH]2)c1	–	35.2 µM	> 50 µM	> 50 µM	–
CCNC(=O)Nc1cc(Cl)cc(C(=O)Nc2ccc3c(c2)CNCCO3)c1	35.3 µM	> 50 µM	–	–	–
C[C@@]1(c2cccc(CN)c2)C[C@H]1c1cc(Cl)cc(NC(=O)OCc2ccccc2)c1	6.46 µM	2.61 µM	–	–	–
CCNC(=O)Nc1cc(Cl)cc(C(=O)Nc2cccc(CN)c2)c1	> 50 µM	> 50 µM	–	–	–
OCC#C[C@H](Nc1ccc2c(c1)CNC2)c1cc(Cl)cc2[nH]ncc12	> 50 µM	> 50 µM	–	–	–
O=C(O)c1cc(Cl)c(F)cc1S(=O)(=O)Nc1ccc(Oc2ccccc2Cl)cc1	> 50 µM	> 50 µM	–	–	–
NCc1cccc(CCc2cc(Cl)cc(NC(=O)OCc3ccccc3)c2)c1	11.9 µM	5.46 µM	29.7 µM	2.058 µM	–
O=C(O)c1cc2cc(-c3cc(Cl)cc(C4CC4)c3)ccc2[nH]1	26.5 µM	40.7 µM	–	–	CC50 [3, 6]: 35.5 µM
NCc1cccc(NC(=O)[C@@H](NC(=O)OCc2ccccc2)c2ccc(-c3cc4cccnc4s3)cc2)c1	> 50 µM	34.7 µM	–	–	–
NCc1cccc(NC(=O)[C@H](NC(=O)OCc2ccccc2)C2CCC(c3ccccc3)CC2)c1 (stereo partly drawn)	11.5 µM	4.58 µM	–	–	–
CCc1cc(Br)cc2c(Cc3ccc(-c4nnn[nH]4)cc3)c[nH]c12	23.1 µM	19.4 µM	–	–	CC50 ([1]; vero c1008): 18.6 µM; CC50 ([2]; vero c1008): 17.9 µM; CC50 [3, 6]: 21.7 µM
CNC(=O)[C@H](Nc1cc(CN)cc(C(=O)O)c1)c1cc(Cl)cc(NC(=O)OCc2ccccc2)c1	> 50 µM	> 50 µM	–	–	–
O=C(Nc1cc(Cl)cc(C(=O)Nc2ccc3c(c2)CNCC3)c1)OCc1ccccc1	3.27 µM	2.85 µM	–	–	–
